# Results taken from US9549965B2, “Pharmaceutical composition for treating a microbial infection” (HELPERBY THERAPEUTICS LIMITED, priority 2010, dated 2017).
# Values joined by “and” are separate entries in the source; they are usually repeats but may differ in a detail not shown here. Equal entries are not always repeated. Structures can show the parent of a compound that is named as a salt.
# Columns and labels:
# [1] = tested on: stationary phase E. coli; assay: Bactericidal activity against stationary phase E. coli (CFU counts); assay type: cell-based, Escherichia coli; settings: for log reduction at 6.25 µg/mL / log reduction at 12.5 µg/mL / log reduction at 25 µg/mL: Escherichia coli, read-out: Log kill
# Experimental: (§1) Escherichia coli K12; Gram negative; Reference strain.
# (§2) Bacteria were grown in 10 ml of nutrient broth (No. 2 (Oxoid)) overnight at 37° C., with continuous shaking at 120 rpm. The overnight cultures were diluted (1000×) in 100 ml of growth medium and then incubated without shaking for 10 days. Viability of the bacteria was estimated by colony forming unit (CFU) counts at 2 hour intervals at the first 24 hours and at 12-24 hours afterwards. From serial 10-fold dilutions of the experimental cultures, 100 μl samples were added to triplicate plates of nutrient agar plates (Oxoid) and blood agar plates (Oxoid). Colony forming units (CFU) were counted after incubation of the plates at 37° C. for 24 hours.
# (§3) Cultures incubated for more than 24 hours are in the stationary phase. For drug screening, 5-6 day old stationary phase cultures were used.
# (§4) Different concentrations of each test compound were incubated with stationary phase cultures (5-6 day cultures) in 96 well plates for 24 or 48 hours. Bactericidal activity was then determined by taking CFU counts of the resulting cultures, as described above.
# [2] = tested on: log phase E. coli; assay: MIC against log phase E. coli; assay type: cell-based, Escherichia coli
# Experimental: as §1
# (§5) The above-described overnight cultures were diluted (1000×) with iso-sensitest broth. The cultures were then incubated at 37° C. with shaking for 1-2 hours to reach log CFU 6, which served as log phase cultures.
# (§6) The bactericidal activity of the drugs against log phase cultures were determined by minimal inhibitory concentration (MIC) of the drugs, which is defined as the lowest concentration which inhibits visible growth. Different concentrations of each test compound were incubated with the log-phase cultures in 96 well plates for 24 hours. Bactericidal activity was then examined by taking a spectrophotometer reading (using a plate reader) at 405 nm.
# [3] = tested on: NDM-1 Klebsiella pneumoniae; assay: Chequerboard analysis with colistin against NDM-1 Klebsiella pneumoniae; assay type: cell-based
# [4] = tested on: stationary phase S. aureus; assay: Bactericidal activity against stationary phase S. aureus (CFU counts); assay type: cell-based, Staphylococcus aureus; settings: Staphylococcus aureus, read-out: Log Kill; for log reduction at 6.25 µg/mL: 6.25 μg/ml; for log reduction at 12.5 µg/mL: 12.5 μg/ml; for log reduction at 25 µg/mL: 25 μg/ml
# Experimental: Staphylococcus aureus (Oxford strain); Gram positive; Reference strain.
# as §2, §3, §4
# [5] = tested on: log phase E. coli; assay: Chequerboard analysis with polymyxin E against log phase E. coli; assay type: cell-based, Escherichia coli; settings: for MIC: Escherichia coli
# Experimental: as §1, §5, §6
# [6] = tested on: persistent E. coli; assay: Bactericidal activity against persistent E. coli selected by gentamicin; assay type: cell-based, Escherichia coli
# Experimental: as §1
# An antibiotic (gentamicin) was added to 5-6 day stationary-phase cultures to the final concentration of 50 to 100 μg/ml for 24 hours. After 24 hours of antibiotic treatment, the cells are washed 3 times with phosphate buffered saline (PBS), and then resuspended in PBS. The surviving bacterial cells are used as persisters. Viability is estimated by CFU counts. The persisters were then used in measurements of bactericidal activity for test compounds.
# Different concentrations of each test compound were incubated with the (persister) cell suspension in 96 well plates for various periods of time (24 and 48 hours). Bactericidal activity was then determined by taking CFU counts of the resulting cultures, as described above.
# [7] = Escherichia coli, read-out: MIC
molecule,measurement,setting,value
CCCCCCc1ccc(O)cc1O.Nc1c2ccccc2nc2ccccc12 [Acrisorcin],Log Kill,[1]; 6.25 μg/ml,6.14
same,Log Kill,[1]; 12.50 μg/ml,6.14
same,Log Kill,[1]; 25.00 μg/ml,6.14
same,MIC,[2],— (— signifies MIC higher than 50 μg/ml)
CN1CCN(CCCN2c3ccccc3Sc3ccc(C(F)(F)F)cc32)CC1 [Trifluoperazine hydrochloride],log reduction at 6.25 µg/mL,[1]; 6.25 μg/ml,-0.12
same,log reduction at 12.5 µg/mL,[1]; 12.50 μg/ml,6.14
same,log reduction at 25 µg/mL,[1]; 25.00 μg/ml,6.14
same,spectrophotometer reading,[3]; trifluoperazine hydrochloride 0.25 mg/L alone,0.96
same,spectrophotometer reading,[3]; trifluoperazine hydrochloride 0.5 mg/L alone,0.95
same,spectrophotometer reading,[3]; trifluoperazine hydrochloride 1 mg/L alone,0.94
same,spectrophotometer reading,[3]; trifluoperazine hydrochloride 2 mg/L alone,0.96
same,spectrophotometer reading,[3]; trifluoperazine hydrochloride 4 mg/L alone,0.95
same,spectrophotometer reading,[3]; trifluoperazine hydrochloride 8 mg/L alone,0.97
same,spectrophotometer reading,[3]; trifluoperazine hydrochloride 16 mg/L alone,0.98
same,spectrophotometer reading,[3]; trifluoperazine hydrochloride 32 mg/L alone,0.95
same,spectrophotometer reading,[3]; trifluoperazine hydrochloride 64 mg/L alone,0.77
same,spectrophotometer reading,[3]; trifluoperazine hydrochloride 128 mg/L alone,0.87
same,spectrophotometer reading,[3]; trifluoperazine hydrochloride 256 mg/L alone,1.33
same,MIC,[2]; [7],20 µg/mL
same,log reduction at 6.25 µg/mL,[4],0
same,log reduction at 12.5 µg/mL,[4],2.22
same,log reduction at 25 µg/mL,[4],6.03
Polymyxin E (Colistin),spectrophotometer reading,[5]; polymyxin E 0.0019 μg/ml alone,1.53
same,spectrophotometer reading,[5]; polymyxin E 0.0039 μg/ml alone,1.55
same,spectrophotometer reading,[5]; polymyxin E 0.0078 μg/ml alone,1.55
same,spectrophotometer reading,[5]; polymyxin E 0.015625 μg/ml alone,1.53
same,spectrophotometer reading,[5]; polymyxin E 0.03125 μg/ml alone,1.42
same,spectrophotometer reading,[5]; polymyxin E 0.0625 μg/ml alone,1.52
same,spectrophotometer reading,[5]; polymyxin E 0.125 μg/ml alone,1.48
same,spectrophotometer reading,[5]; polymyxin E 0.25 μg/ml alone,1.25
same,spectrophotometer reading,[5]; polymyxin E 0.5 μg/ml alone,0.49
same,spectrophotometer reading,[5]; polymyxin E 1 μg/ml alone,0.49
same,spectrophotometer reading,[5]; polymyxin E 2 μg/ml alone,0.50
same,spectrophotometer reading,"[3]; colistin 0.5 mg/L alone, Table 6",1.08
same,spectrophotometer reading,"[3]; colistin 0.5 mg/L alone, Table 7",0.98
same,spectrophotometer reading,"[3]; colistin 0.5 mg/L alone, Table 8",0.94
same,spectrophotometer reading,"[3]; colistin 0.5 mg/L alone, Table 9",1.12
same,spectrophotometer reading,"[3]; colistin 0.5 mg/L alone, Table 10",1.14
same,spectrophotometer reading,"[3]; colistin 0.5 mg/L alone, Table 11",0.96
same,spectrophotometer reading,"[3]; colistin 1 mg/L alone, Table 6",1.03
same,spectrophotometer reading,"[3]; colistin 1 mg/L alone, Table 7",1.02
same,spectrophotometer reading,"[3]; colistin 1 mg/L alone, Table 8",0.94
same,spectrophotometer reading,"[3]; colistin 1 mg/L alone, Table 9",1.13
same,spectrophotometer reading,"[3]; colistin 1 mg/L alone, Table 10",1.12
same,spectrophotometer reading,"[3]; colistin 1 mg/L alone, Table 11",0.93
same,spectrophotometer reading,"[3]; colistin 2 mg/L alone, Table 6",1.05
same,spectrophotometer reading,"[3]; colistin 2 mg/L alone, Table 7",0.95
same,spectrophotometer reading,"[3]; colistin 2 mg/L alone, Table 8",0.87
same,spectrophotometer reading,"[3]; colistin 2 mg/L alone, Table 9",1.07
same,spectrophotometer reading,"[3]; colistin 2 mg/L alone, Table 10",1.09
same,spectrophotometer reading,"[3]; colistin 2 mg/L alone, Table 11",0.91
same,spectrophotometer reading,"[3]; colistin 4 mg/L alone, Table 6",0.34
same,spectrophotometer reading,"[3]; colistin 4 mg/L alone, Table 7",0.87
same,spectrophotometer reading,"[3]; colistin 4 mg/L alone, Table 8",0.54
same,spectrophotometer reading,"[3]; colistin 4 mg/L alone, Table 9",0.80
same,spectrophotometer reading,"[3]; colistin 4 mg/L alone, Table 10",0.89
same,spectrophotometer reading,"[3]; colistin 4 mg/L alone, Table 11",0.90
same,spectrophotometer reading,"[3]; colistin 8 mg/L alone, Table 6",0.82
same,spectrophotometer reading,"[3]; colistin 8 mg/L alone, Table 7",0.44
same,spectrophotometer reading,"[3]; colistin 8 mg/L alone, Table 8",0.57
same,spectrophotometer reading,"[3]; colistin 8 mg/L alone, Table 9",0.68
same,spectrophotometer reading,"[3]; colistin 8 mg/L alone, Table 10",0.63
same,spectrophotometer reading,"[3]; colistin 8 mg/L alone, Table 11",0.53
same,spectrophotometer reading,"[3]; colistin 16 mg/L alone, Table 6",0.78
same,spectrophotometer reading,"[3]; colistin 16 mg/L alone, Table 7",0.53
same,spectrophotometer reading,"[3]; colistin 16 mg/L alone, Table 8",0.39
same,spectrophotometer reading,"[3]; colistin 16 mg/L alone, Table 9",0.40
same,spectrophotometer reading,"[3]; colistin 16 mg/L alone, Table 10",0.69
same,spectrophotometer reading,"[3]; colistin 16 mg/L alone, Table 11",0.48
same,spectrophotometer reading,"[3]; colistin 32 mg/L alone, Table 6",0.33
same,spectrophotometer reading,"[3]; colistin 32 mg/L alone, Table 7",0.36
same,spectrophotometer reading,"[3]; colistin 32 mg/L alone, Table 8",0.41
same,spectrophotometer reading,"[3]; colistin 32 mg/L alone, Table 9",0.39
same,spectrophotometer reading,"[3]; colistin 32 mg/L alone, Table 10",0.40
same,spectrophotometer reading,"[3]; colistin 32 mg/L alone, Table 11",0.41
same,Colistin MIC,[3]; colistin alone,32 mg/L and 16 mg/L
same,Colistin MIC,[3]; combined with 32 mg/L of suloctidil,1 mg/L
same,Colistin MIC,[3]; combined with 64 mg/L of mefloquine,0.5 mg/L
CCN(CC)CCCC(C)Nc1c2ccc(Cl)cc2nc2ccc(OC)cc12 (stereo not shown) [Quinacrine hydrochloride],log reduction at 6.25 µg/mL,[1]; 6.25 μg/ml,1.27
same,log reduction at 12.5 µg/mL,[1]; 12.50 μg/ml,2.14
same,log reduction at 25 µg/mL,[1]; 25.00 μg/ml,6.14
same,MIC,[2]; [7],> 50 µg/mL
"CC(COc1ccccc1)N(CCCl)Cc1ccccc1 (stereo not shown) [HT00800157, Phenoxybenzamine Hydrochloride]",MIC,[5]; alone,> 64 µg/mL
same,MIC,[5]; in combination with polymyxin E at 0.06 μg/ml,64 µg/mL
same,MIC,[5]; in combination with polymyxin E at 0.25 μg/ml,1 µg/mL
same,spectrophotometer reading,[5]; HT00800157 1 μg/ml alone,1.52
same,spectrophotometer reading,[5]; HT00800157 2 μg/ml alone,1.53
same,spectrophotometer reading,[5]; HT00800157 4 μg/ml alone,1.60
same,spectrophotometer reading,[5]; HT00800157 8 μg/ml alone,1.56
same,spectrophotometer reading,[5]; HT00800157 16 μg/ml alone,1.56
same,spectrophotometer reading,[5]; HT00800157 32 μg/ml alone,1.57
same,spectrophotometer reading,[5]; HT00800157 64 μg/ml alone,1.60
Oc1ccc(O)cc1 [Hydroquinone],log reduction at 6.25 µg/mL,[1]; 6.25 μg/ml,6.14
same,log reduction at 12.5 µg/mL,[1]; 12.50 μg/ml,6.14
same,log reduction at 25 µg/mL,[1]; 25.00 μg/ml,6.14
same,MIC,[2]; [7],> 50 µg/mL
same,log reduction at 6.25 µg/mL,[4],6.15
same,log reduction at 12.5 µg/mL,[4],6.15
same,log reduction at 25 µg/mL,[4],6.15
Vitamin B12,Log Kill,[6]; 6.25 μg/ml,0.03
same,Log Kill,[6]; 12.5 μg/ml,6.21
same,Log Kill,[6]; 25 μg/ml,6.21
same,MIC,[2],— (— signifies MIC higher than 50 μg/ml)
